Series [1] relates to hepatobiliary transport of [^18F]FCA. The series is described as follows: Dynamic PET of [^18F]FCA in control, rifampicin and bosentan treated FVB-mice. The conditions noted are these: pretreated FVB-mice; dynamic μPET. On the procedure: Hepatobiliary transport of the tracer was evaluated in female wild-type FVB mice (5 weeks old, Charles River). The animals were housed in accordance with European Ethics Committee guidelines. The animal studies were approved by the Animal Experimental Ethical Committee of Ghent University (ECD 15/69). Food and water was provided ad libitum. Animals were fasted overnight before the PET-scan.
Mice were anesthetized with 1.5 v:v % isoflurane in 100% O2 for the duration of the experiment. An intravenous polyethylene line was placed in the lateral tail vein. The animals were placed in the small animal PET/CT-scanner (FLEX Triumph II small animal PET/CT-scanner; PET field of view: 7.5 cm axial; 1.3 mm spatial resolution; TriFoil Imaging) on a heated bed. A CT-scan was acquired for anatomical correlation.
The interaction of rifampicin (Sigma Aldrich) and bosentan (Activate Scientific) on in vivo [^18F]FCA transport was examined. FVB-mice were divided into 3 different groups (n = 3 per group): rifampicin, bosentan, and a control DMSO vehicle treated group). Both drugs were administered in doses of 100 mg/kg, intra-peritoneal in DMSO:PBS 70:30 v:v (rifampicin) or DMSO (bosentan) 1 hour before the start of the PET-scan. An additional dose (25 mg/kg for rifampicin in DMSO:PBS 40:60 v:v, 50 mg/kg for bosentan in DMSO) was co-injected intravenously with the tracer.
For each scan, 10 MBq of [^18F]FCA was administered intravenously and a 1 hour dynamic scan was started. Immediately after the dynamic scan, 18 MBq [^18F]FDG was injected intravenously. After 20 minutes, a 20 minutes static scan was taken.
PET-data were obtained in list-mode and were iteratively reconstructed (50 iterations) in frames of 15 seconds for the first 10 minutes, followed by 50 frames of 1 minute. ROI’s were drawn manually over liver, gallbladder and intestines using PMod software. A ROI was drawn in the left ventricle on the static [^18F]FDG scan to obtain an image-derived arterial blood input curve. The uptake of [^18F]FCA in arterial blood, liver, gallbladder and intestines was expressed as a % injected dose (% ID) and normalized for the weight of a 20 gram mouse. Time-activity curves (TAC’s) were generated using these values.
AUC, maximum % ID, and time to peak values were determined for the TAC’s with Graphpad Prism v3.00. Differences between 2 groups were determined with the non-parametric Mann-Whitney U test. P-values ≤ 0.05 were considered significant.

The target of the next series is MRP2 (Homo sapiens, UniProt Q92887). The series is described as follows: In vitro efflux competition assay with [^3H]EbG in MRP2 membrane vesicles. Here is the method: (§1) The assay was performed in 96-well plates. […] The final volume in each well was 30 μL. The plates were incubated for 10 minutes at 37°C and uptake was halted by the addition of 150 μL ice-cold buffer solution. The contents of each well were transferred to a glass fiber filter plate (Multiscreen HTS plates; Merck Millipore) and washed 3 times with 200 μL of ice-cold buffer solution. Vesicles were lysed by incubation with 100 μL 0.1 M NaOH for 10 minutes at room temperature. An 80 μL aliquot of this solution was used for liquid scintillation counting. Data points were collected in triplicate. IC50-values were calculated with Graphpad Prism v3.00.
Sequence of MRP2 (Q92887 whole entry): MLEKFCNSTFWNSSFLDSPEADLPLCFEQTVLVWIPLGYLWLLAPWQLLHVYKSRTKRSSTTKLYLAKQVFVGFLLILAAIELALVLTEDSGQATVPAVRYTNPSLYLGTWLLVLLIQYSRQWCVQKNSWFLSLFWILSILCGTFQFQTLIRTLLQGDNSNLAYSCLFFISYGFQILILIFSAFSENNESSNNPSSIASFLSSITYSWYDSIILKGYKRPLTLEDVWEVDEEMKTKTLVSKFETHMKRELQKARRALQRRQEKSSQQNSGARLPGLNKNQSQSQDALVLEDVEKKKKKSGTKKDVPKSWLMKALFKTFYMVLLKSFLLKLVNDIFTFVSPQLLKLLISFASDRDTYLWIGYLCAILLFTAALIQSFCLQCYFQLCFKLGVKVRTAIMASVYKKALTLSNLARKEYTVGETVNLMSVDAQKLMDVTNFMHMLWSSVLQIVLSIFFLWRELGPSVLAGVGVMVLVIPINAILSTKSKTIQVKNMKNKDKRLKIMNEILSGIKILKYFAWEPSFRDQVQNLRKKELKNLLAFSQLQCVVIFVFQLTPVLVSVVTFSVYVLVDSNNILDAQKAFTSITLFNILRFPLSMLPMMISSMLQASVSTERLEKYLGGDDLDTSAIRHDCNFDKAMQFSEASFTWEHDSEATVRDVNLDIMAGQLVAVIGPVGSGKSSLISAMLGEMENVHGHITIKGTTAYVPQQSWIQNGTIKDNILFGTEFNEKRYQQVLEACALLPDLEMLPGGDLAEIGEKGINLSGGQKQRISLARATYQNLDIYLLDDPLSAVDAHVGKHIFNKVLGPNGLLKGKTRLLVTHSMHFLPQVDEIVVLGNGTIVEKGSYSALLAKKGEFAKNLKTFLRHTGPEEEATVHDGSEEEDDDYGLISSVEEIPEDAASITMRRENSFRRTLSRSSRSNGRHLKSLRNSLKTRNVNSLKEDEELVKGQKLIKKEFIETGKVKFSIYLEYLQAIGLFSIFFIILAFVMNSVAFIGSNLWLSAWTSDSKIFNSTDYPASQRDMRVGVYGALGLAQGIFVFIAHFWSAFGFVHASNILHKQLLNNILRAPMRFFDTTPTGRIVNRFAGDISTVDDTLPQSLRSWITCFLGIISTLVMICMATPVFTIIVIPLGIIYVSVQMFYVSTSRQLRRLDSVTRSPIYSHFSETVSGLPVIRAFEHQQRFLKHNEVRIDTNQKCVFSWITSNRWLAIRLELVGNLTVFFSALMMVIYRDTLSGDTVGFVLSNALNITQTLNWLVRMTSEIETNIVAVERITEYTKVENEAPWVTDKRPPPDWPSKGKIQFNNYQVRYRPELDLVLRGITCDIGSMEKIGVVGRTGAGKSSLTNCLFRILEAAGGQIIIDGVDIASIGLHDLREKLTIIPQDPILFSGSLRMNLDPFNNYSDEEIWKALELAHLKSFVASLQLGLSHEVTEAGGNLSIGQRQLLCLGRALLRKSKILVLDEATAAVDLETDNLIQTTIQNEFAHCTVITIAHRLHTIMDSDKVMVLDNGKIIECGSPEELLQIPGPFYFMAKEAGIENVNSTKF

The target in another series is BSEP (Homo sapiens, UniProt O95342). The series is described as follows: In vitro efflux competition assay with [^3H]TC in BSEP membrane vesicles. Here is the method:
as §1

A further series has as its target T1, OATP1B3 (Homo sapiens, UniProt Q9NPD5).
T1 sequence (Q9NPD5 1-702): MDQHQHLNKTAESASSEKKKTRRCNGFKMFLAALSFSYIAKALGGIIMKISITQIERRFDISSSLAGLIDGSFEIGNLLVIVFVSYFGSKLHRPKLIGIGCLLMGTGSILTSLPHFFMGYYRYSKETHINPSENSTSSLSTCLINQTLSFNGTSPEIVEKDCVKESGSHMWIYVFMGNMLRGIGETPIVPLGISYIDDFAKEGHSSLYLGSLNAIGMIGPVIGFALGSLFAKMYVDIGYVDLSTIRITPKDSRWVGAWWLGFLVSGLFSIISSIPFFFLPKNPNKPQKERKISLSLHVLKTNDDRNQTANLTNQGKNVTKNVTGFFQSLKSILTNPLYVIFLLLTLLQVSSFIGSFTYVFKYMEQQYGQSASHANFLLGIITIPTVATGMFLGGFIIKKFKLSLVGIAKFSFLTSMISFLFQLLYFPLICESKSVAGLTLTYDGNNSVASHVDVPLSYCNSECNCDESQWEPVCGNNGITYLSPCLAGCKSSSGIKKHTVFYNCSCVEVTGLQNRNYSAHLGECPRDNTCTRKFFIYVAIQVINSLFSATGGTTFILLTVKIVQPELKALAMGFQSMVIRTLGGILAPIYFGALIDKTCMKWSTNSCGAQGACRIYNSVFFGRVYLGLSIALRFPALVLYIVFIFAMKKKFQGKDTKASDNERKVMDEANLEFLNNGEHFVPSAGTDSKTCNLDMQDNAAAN
The series is described as follows: In vitro uptake assay with [^3H]EbG in HEK-OATP1B3 cells. On the procedure:
(§2) Transport of 3β-fluorocholic acid by NTCP, OATP1B1 and OATP1B3 was assessed using stable transfected cell lines. Chinese hamster ovary (CHO) cells, Human Embryonic Kidney (HEK), HEK293-OATP1B3 cells were purchased from Solvo Biotechnologies; CHO-NTCP and HEK293-OATP1B1 cells were a kind gift from the same company. CHO cells were cultured in Dulbecco’s modified Eagle’s medium (DMEM)/F12 with 10% fetal calf serum, 0.3 mM L-proline, 2 mM glutamine and penicilline/streptomycine (50 U/mL). HEK cells expressing OATP1B1, OATP1B3 and control cell lines were cultured in DMEM glutamax (high glucose/pyruvate) with 10% fetal calf serum, MEM non-essential amino acid supplement and penicilline/streptomycine (50 U/mL). All cell lines were cultured in a 37°C 5% CO2 environment.
(§3) Transport of FCA by the NTCP, OATP1B1 and OATP1B3 transporters was assessed by inhibition of the tritium labeled model substrates uptake.
(§4) Cells were seeded in 24-well plates at 400,000 cells per well. […] The plates were cooled on ice and 1 mL 1% BSA ice-cold HBSS (with Ca and Mg) was added. Cells were washed twice with 2 mL ice-cold HBSS (with Ca and Mg) and were finally lysed with 250 μL 0.1 M NaOH. […] Of the lysate, 150 μL was used for liquid scintillation counting (TriCarb 2900 TR; Perkin Elmer) and 25 μL was subjected to a BCA assay (ThermoFisher Scientific) to determine protein content. Data points were collected in triplicate. IC50-values were calculated with Graphpad Prism v3.00 (Graphpad software).

The target of another series is T2, NTCP (Homo sapiens, UniProt Q14973).
T2 sequence (Q14973 1-349): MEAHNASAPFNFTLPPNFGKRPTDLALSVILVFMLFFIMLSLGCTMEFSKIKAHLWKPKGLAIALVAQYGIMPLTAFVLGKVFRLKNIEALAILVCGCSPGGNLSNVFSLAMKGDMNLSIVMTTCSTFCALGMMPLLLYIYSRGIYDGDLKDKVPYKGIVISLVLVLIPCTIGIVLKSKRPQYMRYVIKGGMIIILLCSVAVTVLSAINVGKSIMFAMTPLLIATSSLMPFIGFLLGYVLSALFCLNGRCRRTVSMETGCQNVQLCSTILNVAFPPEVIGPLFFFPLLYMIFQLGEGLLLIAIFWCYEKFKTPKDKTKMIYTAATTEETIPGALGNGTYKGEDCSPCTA
The series is described as follows: In vitro uptake assay with [^3H]TC in CHO-NTCP cells. On the procedure: as §2, §3
Cells were seeded in 24-well plates at 400,000 cells per well. After 24 hours, the culture medium was removed and cells were washed twice with 1 mL 10 mM HEPES-Hank’s Balanced Salt Solution (HBSS; with Ca and Mg; 37°C pH 7.4) washing buffer. […] Of the dosing solution, 250 μL was added to the washed cells and incubation took place at 37°C for 15 minutes. The plates were cooled on ice and 1 mL 1% BSA ice-cold HBSS (with Ca and Mg) was added. Cells were washed twice with 2 mL ice-cold HBSS (with Ca and Mg) and were finally lysed with 250 μL 0.1 M NaOH. The plates were shaken for 15 minutes at 37°C. Of the lysate, 150 μL was used for liquid scintillation counting (TriCarb 2900 TR; Perkin Elmer) and 25 μL was subjected to a BCA assay (ThermoFisher Scientific) to determine protein content. Data points were collected in triplicate. IC50-values were calculated with Graphpad Prism v3.00 (Graphpad software).

Another series concerns the target T3, OATP1B1 (Homo sapiens, UniProt Q9Y6L6).
T3 sequence (Q9Y6L6 1-691): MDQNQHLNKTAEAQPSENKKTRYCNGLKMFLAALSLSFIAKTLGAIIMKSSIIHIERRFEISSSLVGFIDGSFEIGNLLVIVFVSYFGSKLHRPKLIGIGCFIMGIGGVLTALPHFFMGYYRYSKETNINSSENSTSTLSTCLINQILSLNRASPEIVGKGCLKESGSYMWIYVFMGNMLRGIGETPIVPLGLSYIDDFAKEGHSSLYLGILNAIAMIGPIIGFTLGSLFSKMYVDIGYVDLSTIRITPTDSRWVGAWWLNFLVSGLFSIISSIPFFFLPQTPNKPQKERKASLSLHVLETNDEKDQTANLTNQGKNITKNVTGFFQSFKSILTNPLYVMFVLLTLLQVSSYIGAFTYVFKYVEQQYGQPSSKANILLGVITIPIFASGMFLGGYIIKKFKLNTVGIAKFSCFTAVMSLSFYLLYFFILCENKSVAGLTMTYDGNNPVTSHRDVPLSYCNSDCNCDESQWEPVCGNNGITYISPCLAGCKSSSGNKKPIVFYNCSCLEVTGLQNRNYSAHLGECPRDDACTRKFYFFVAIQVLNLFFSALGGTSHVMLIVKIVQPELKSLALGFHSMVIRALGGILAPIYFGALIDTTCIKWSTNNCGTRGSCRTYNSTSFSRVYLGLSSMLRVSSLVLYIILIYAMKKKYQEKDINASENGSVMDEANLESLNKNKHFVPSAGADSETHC
The series is described as follows: In vitro uptake assay with [^3H]EbG in HEK-OATP1B1 cells. On the procedure:
as §2, §3, §4

For series [2] the following is noted: cited from earlier work.
On the set-up of series [3]: method as in PMID 27513813. The note with it: cited from earlier work.
[4] abbreviates: 15 minutes of incubation without added FCA.

Sequence of BSEP (O95342 whole entry): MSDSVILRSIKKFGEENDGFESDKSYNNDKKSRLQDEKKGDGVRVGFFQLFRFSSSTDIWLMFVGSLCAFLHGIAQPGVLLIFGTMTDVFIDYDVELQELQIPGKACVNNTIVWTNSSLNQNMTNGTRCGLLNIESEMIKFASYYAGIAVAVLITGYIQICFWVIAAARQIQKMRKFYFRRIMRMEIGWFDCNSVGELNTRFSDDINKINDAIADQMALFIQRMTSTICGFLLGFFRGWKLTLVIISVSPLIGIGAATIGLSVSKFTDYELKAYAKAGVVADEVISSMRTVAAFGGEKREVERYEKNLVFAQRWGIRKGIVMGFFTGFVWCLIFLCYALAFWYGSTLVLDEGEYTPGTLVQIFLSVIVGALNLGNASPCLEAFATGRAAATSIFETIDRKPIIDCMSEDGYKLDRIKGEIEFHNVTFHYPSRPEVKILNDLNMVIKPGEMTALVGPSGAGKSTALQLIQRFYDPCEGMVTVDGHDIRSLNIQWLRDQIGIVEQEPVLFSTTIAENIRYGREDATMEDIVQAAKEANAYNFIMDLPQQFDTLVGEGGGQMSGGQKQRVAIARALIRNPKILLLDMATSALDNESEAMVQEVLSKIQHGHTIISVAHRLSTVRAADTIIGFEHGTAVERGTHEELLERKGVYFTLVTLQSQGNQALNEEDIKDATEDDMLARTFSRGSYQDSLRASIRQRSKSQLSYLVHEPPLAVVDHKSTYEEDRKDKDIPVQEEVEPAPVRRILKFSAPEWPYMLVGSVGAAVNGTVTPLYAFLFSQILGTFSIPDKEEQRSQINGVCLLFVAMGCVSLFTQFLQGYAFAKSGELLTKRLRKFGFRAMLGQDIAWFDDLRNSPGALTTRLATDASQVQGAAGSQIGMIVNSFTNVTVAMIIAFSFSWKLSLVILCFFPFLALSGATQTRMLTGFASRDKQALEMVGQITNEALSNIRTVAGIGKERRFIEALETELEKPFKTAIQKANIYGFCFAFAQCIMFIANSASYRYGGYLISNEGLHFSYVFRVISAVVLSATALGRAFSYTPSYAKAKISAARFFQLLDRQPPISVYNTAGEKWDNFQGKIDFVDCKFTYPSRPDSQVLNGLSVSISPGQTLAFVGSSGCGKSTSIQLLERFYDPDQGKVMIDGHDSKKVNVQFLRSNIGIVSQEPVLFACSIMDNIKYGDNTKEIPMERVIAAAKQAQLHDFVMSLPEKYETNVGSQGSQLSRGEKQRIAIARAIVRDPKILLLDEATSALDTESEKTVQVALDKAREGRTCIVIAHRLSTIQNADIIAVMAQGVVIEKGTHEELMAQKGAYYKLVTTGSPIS

Consider `COc1ccccc1Oc1c(NS(=O)(=O)c2ccc(C(C)(C)C)cc2)nc(-c2ncccn2)nc1OCCO` [Bosentan, bosentan, reference compound], for which, in series [1], the “effect on hepatobiliary transport of [^18F]FCA” value was “significantly inhibited”.
As to `C[C@H](CCC(=O)O)[C@H]1CC[C@H]2[C@@H]3[C@H](O)C[C@@H]4C[C@@H](F)CC[C@]4(C)[C@H]3C[C@H](O)[C@]12C` [FCA, 3β-Fluoro-7α,12α-Dihydroxy-5β-Cholanic acid], the IC50 on MRP2 is 577 ± 300 µM; on BSEP, 253 ± 76 µM; on OATP1B3 it was 25.2 ± 12.7 µM; against NTCP it was 6.6 ± 0.8 µM; on OATP1B1, 10.5 ± 1.1 µM.
`CO[C@H]1/C=C/O[C@@]2(C)Oc3c(C)c(O)c4c(O)c(c(/C=N/N5CCN(C)CC5)c(O)c4c3C2=O)NC(=O)/C(C)=C\C=C\[C@H](C)[C@H](O)[C@@H](C)[C@@H](O)[C@@H](C)[C@H](OC(C)=O)[C@@H]1C` [Rifampicin, rifampicin]: the “effect on ^99mTc mebrofenin canalicular efflux on the SPECT-scan” value in series [2] (not told) was “complete block of canalicular efflux”.
In the case of `C[C@]12CC[C@@H]3c4ccc(O)cc4CC[C@H]3[C@@H]1CC[C@@H]2O[C@@H]1O[C@H](C(=O)O)[C@@H](O)[C@H](O)[C@H]1O` [[^3H]EbG, [^3H]estradiol-17β-glucuronide], at MRP2 (10 minutes of incubation), the “uptake in MRP2 vesicles” value stood at 18.5 ± 3.8 pmol/mg protein. Besides, the “uptake in HEK-OATP1B3” value at OATP1B3 (setting [4]) was 8.6 ± 1.3 pmol/mg protein. At OATP1B3 (S2 file, 1 µM, 15 minutes), the “uptake in HEK-OATP1B3 (kinetic profile)” value came out at 19.0 pmol/mg protein. The “uptake in HEK-OATP1B3 versus control” value on OATP1B3 (S2 file, 15 minutes) turned out to be 13 times. The “uptake in HEK-OATP1B1” value on OATP1B1 (setting [4]) is given as 84.0 ± 7.7 pmol/mg protein. Besides, the “uptake in HEK-OATP1B1 (kinetic profile)” value at OATP1B1 (S2 file, 1 µM, 15 minutes) stood at 163.9 pmol/mg protein. Further, the “uptake in HEK-OATP1B1 versus control” value at OATP1B1 (S2 file, 15 minutes) was 115 times.
Turning to `C[C@H](CCC(=O)NCCS(=O)(=O)O)[C@H]1CC[C@H]2[C@@H]3[C@H](O)C[C@@H]4C[C@H](O)CC[C@]4(C)[C@H]3C[C@H](O)[C@]12C` [[^3H]TC, [^3H]taurocholate], the “uptake in CHO-NTCP cells” value on NTCP (setting [4]) was 95.2 ± 6.0 pmol/mg protein. The “uptake in CHO-NTCP cells (kinetic profile)” value at NTCP (S2 file, 1 µM, 15 minutes of incubation) stood at 135.5 pmol/mg protein. For the same molecule, the “uptake in CHO-NTCP cells versus control” value at NTCP (S2 file, 15 minutes) amounted to 101 fold.
As for `Cc1cc(C)c(NC(=O)CN(CC(=O)[O-])CC(=O)[O-])c(C)c1Br.Cc1cc(C)c(NC(=O)CN(CC(=O)[O-])CC(=O)[O-])c(C)c1Br.[99Tc+4]` [^99mTc-mebrofenin, ^99mTc Mebrofenin], in series [2] (FVB-mice), the “% ID in gallbladder and intestines” value was 78.1 % ID; the “maximum % ID liver” value is on record as 51.8 % ID; the “time to reach maximum % ID in liver” value is 2.2 min.
[^99mTc]-DTPA-CA [^99mTc CA]: in series [3], the “max % ID liver” value is 25.7 % ID; the “maximal % ID in gallbladder and intestines” value was 47.8 % ID; the “time to reach max % ID in liver” value was 12.0 min.
Turning to [^99mTc]-DTPA-CDCA [^99mTc CDCA], in series [3], the “max % ID liver” value is 37.3 % ID; the “maximal % ID in gallbladder and intestines” value was 62.2 % ID; the “time to reach max % ID in liver” value was 12.7 min.

Broadly, the IC50 is the concentration that gives 50% inhibition. A higher IC50 goes with lower potency.

Values taken from paper PMC5342262, “Synthesis, in vitro and in vivo evaluation of 3β-[^18F]fluorocholic acid for the detection of drug-induced cholestasis in mice” (PLoS ONE, 2017).
